This passage reports EC50 results from patent US12110294B2, “CD73 compounds” (Gilead Sciences, Inc., priority 2020, dated 2024).

SMILES strings stand for the structures.

One may read the EC50 as the concentration that produces a half-maximal response. A lower EC50 goes with greater potency.

This assay addresses T1, CD73 activity in MDA-MB-231-GFP cells (Homo sapiens, UniProt P21589).
T1 construct: endogenous in cells; host or cells: MDA-MB-231-GFP cells
T1 sequence (P21589 27-549): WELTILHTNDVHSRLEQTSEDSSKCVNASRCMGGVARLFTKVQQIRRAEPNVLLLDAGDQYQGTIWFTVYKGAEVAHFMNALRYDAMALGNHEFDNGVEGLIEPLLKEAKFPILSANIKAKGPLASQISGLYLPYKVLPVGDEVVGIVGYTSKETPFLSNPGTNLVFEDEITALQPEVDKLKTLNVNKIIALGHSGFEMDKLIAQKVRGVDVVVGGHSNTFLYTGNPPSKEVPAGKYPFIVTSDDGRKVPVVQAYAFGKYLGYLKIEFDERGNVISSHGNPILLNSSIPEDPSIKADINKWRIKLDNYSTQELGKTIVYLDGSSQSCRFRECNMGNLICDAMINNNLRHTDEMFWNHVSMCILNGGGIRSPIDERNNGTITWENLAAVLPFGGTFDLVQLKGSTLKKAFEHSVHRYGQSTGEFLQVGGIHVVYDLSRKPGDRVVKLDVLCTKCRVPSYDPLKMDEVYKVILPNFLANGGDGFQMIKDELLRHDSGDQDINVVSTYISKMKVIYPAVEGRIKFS
The experiment in a line: MDA-MB-231 Cell Based CD73 Activity Assay (DMEM). Conditions: 3000 cells per well, DMEM medium with 10% human plasma, overnight compound treatment, AMP 200 uM.
On to `O=C(c1ccc([C@H]2C[C@@H]2c2cc(-c3c[nH]c(=O)[nH]c3=O)nn3ccnc23)cc1)N1CCC(F)(F)C1` (racemic) [Example 305, 5-(8-((2S,2S)-2-(4-(3,3-difluoropyrrolidine-1-carbonyl)phenyl)cyclopropyl)imidazo[1,2-b]pyridazin-6-yl)pyrimidine-2,4(1H,3H)-dione], for which the EC50 came to 21.2 nM.

In the case of `O=C(c1cccc([C@H]2C[C@@H]2c2cc(-c3c[nH]c(=O)[nH]c3=O)nn3ccnc23)c1)N1CCC(F)(F)C1` (racemic) [Example 306, 5-(8-((2S,2S)-2-(3-(3,3-difluoropyrrolidine-1-carbonyl)phenyl)cyclopropyl)imidazo[1,2-b]pyridazin-6-yl)pyrimidine-2,4(1H,3H)-dione], the EC50 was found to be 1.41 nM. This EC50 is about 15-fold lower than that of the compound before.

`CC1(C)CCN(C(=O)c2ccc([C@H]3C[C@@H]3c3cc(-c4c[nH]c(=O)[nH]c4=O)nn4ccnc34)cc2)C1` (racemic) [Example 307, 5-(8-((2S,2S)-2-(4-(3,3-dimethylpyrrolidine-1-carbonyl)phenyl)cyclopropyl)imidazo[1,2-b]pyridazin-6-yl)pyrimidine-2,4(1H,3H)-dione]: the EC50 is 96.1 nM.

With `CC1(C)CCN(C(=O)c2cccc([C@H]3C[C@@H]3c3cc(-c4c[nH]c(=O)[nH]c4=O)nn4ccnc34)c2)C1` (racemic) [Example 308, 5-(8-((1S,2S)-2-(3-(3,3-dimethylpyrrolidine-1-carbonyl)phenyl)cyclopropyl)imidazo[1,2-b]pyridazin-6-yl)pyrimidine-2,4(1H,3H)-dione], the response was half-maximal at 6.47 nM (EC50). This EC50 is about 15-fold lower than that of the compound before.

In the case of `O=c1[nH]cc(-c2cc([C@H]3C[C@@H]3c3ccccc3OC(F)(F)F)c3nccn3n2)c(=O)[nH]1` (racemic) [Example 309, 5-(8-((1S,2S)-2-(2-(trifluoromethoxy)phenyl)cyclopropyl)imidazo[1,2-b]pyridazin-6-yl)pyrimidine-2,4(1H,3H)-dione], a half-maximal effect (EC50) was put at 208 nM.

In turn, `N#Cc1cncc([C@H]2C[C@@H]2c2cc(-c3c[nH]c(=O)[nH]c3=O)nn3ccnc23)c1` (racemic) [Example 311, 5-((2S,2S)-2-(6-(2,4-dioxo-1,2,3,4-tetrahydropyrimidin-5-yl)imidazo[1,2-b]pyridazin-8-yl)cyclopropyl)nicotinonitrile] showed an EC50 of 11.6 nM. Compared with the last compound, the EC50 is about 18-fold lower.

Turning to `CNC(=O)c1ccc([C@H]2C[C@@H]2c2cc(-c3c[nH]c(=O)[nH]c3=O)nn3c(F)cnc23)cc1` (racemic) [Example 312, 4-((2S,2S)-2-(6-(2,4-dioxo-1,2,3,4-tetrahydropyrimidin-5-yl)-3-fluoroimidazo[1,2-b]pyridazin-8-yl)cyclopropyl)-N-methylbenzamide], the midpoint of the response, the EC50, lay at 4.17 nM. Against the preceding compound, the EC50 is about 2.8-fold lower.

Take `Cc1nc2cc([C@H]3C[C@@H]3c3cc(-c4c[nH]c(=O)[nH]c4=O)nn4ccnc34)ccc2s1` (racemic) [Example 321, 5-(8-((2S,2S)-2-(2-methylbenzo[d]thiazol-5-yl)cyclopropyl)imidazo[1,2-b]pyridazin-6-yl)pyrimidine-2,4(1H,3H)-dione]: it took 11.2 nM to reach a half-maximal effect (EC50). This EC50 is about 2.7-fold higher than that of the compound before.

Take `Cn1ncc2ccc([C@H]3C[C@@H]3c3cc(-c4c[nH]c(=O)[nH]c4=O)nn4ccnc34)cc21` (racemic) [Example 326, 5-(8-((1S,2S)-2-(1-methyl-1H-indazol-6-yl)cyclopropyl)imidazo[1,2-b]pyridazin-6-yl)pyrimidine-2,4(1H,3H)-dione]: the EC50 was found to be 2.66 nM. This EC50 lies about 4.2-fold lower than the previous one.

In the case of `O=c1[nH]cc(-c2cc([C@H]3C[C@@H]3c3ccc(OC(F)(F)F)cc3)c3nccn3n2)c(=O)[nH]1` (racemic) [Example 359, 5-(8-((1S,2S)-2-(4-(trifluoromethoxy)phenyl)cyclopropyl)imidazo[1,2-b]pyridazin-6-yl)pyrimidine-2,4(1H,3H)-dione], the EC50 worked out at 22 nM.

In turn, `O=c1[nH]cc(-c2cc([C@H]3C[C@@H]3c3ccc(OCC(F)(F)F)cn3)c3nccn3n2)c(=O)[nH]1` (racemic) [Example 363, 5-(8-((1S,2S)-2-(5-(2,2,2-trifluoroethoxy)pyridin-2-yl)cyclopropyl)imidazo[1,2-b]pyridazin-6-yl)pyrimidine-2,4(1H,3H)-dione] showed an EC50 of 5.5 nM.

With `O=c1[nH]cc(-c2cc([C@H]3C[C@@H]3c3ncc(C(F)(F)F)s3)c3nccn3n2)c(=O)[nH]1` (racemic) [Example 364, 5-(8-((1S,2S)-2-(5-(trifluoromethyl)thiazol-2-yl)cyclopropyl)imidazo[1,2-b]pyridazin-6-yl)pyrimidine-2,4(1H,3H)-dione], the EC50 was 34 nM.

`O=c1[nH]cc(-c2cc([C@H]3C[C@@H]3c3cnn(C(F)(F)F)c3)c3nccn3n2)c(=O)[nH]1` (racemic) [Example 366, 5-(8-((1S,2S)-2-(1-(trifluoromethyl)-1H-pyrazol-4-yl)cyclopropyl)imidazo[1,2-b]pyridazin-6-yl)pyrimidine-2,4(1H,3H)-dione] returned a concentration giving a half-maximal response (EC50) of 16.4 nM.

Turning to `O=c1[nH]cc(-c2cc([C@H]3C[C@@H]3c3cnn(C(F)F)c3)c3nccn3n2)c(=O)[nH]1` (racemic) [Example 368, 5-(8-((2S,2S)-2-(1-(difluoromethyl)-1H-pyrazol-4-yl)cyclopropyl)imidazo[1,2-b]pyridazin-6-yl)pyrimidine-2,4(1H,3H)-dione], the EC50 was found to be 20.3 nM.

For the compound `O=c1[nH]cc(-c2cc([C@H]3C[C@@H]3c3ccn(C(F)F)n3)c3nccn3n2)c(=O)[nH]1` (racemic) [Example 369, 5-(8-((1S,2S)-2-(1-(difluoromethyl)-1H-pyrazol-3-yl)cyclopropyl)imidazo[1,2-b]pyridazin-6-yl)pyrimidine-2,4(1H,3H)-dione], the EC50 worked out at 27.5 nM.

As to `O=c1[nH]cc(-c2cc([C@H]3C[C@@H]3c3cnn(C(F)F)c3)c3ncc(F)n3n2)c(=O)[nH]1` (racemic) [Example 370, 5-(8-((1S,2S)-2-(1-(difluoromethyl)-1H-pyrazol-4-yl)cyclopropyl)-3-fluoroimidazo[1,2-b]pyridazin-6-yl)pyrimidine-2,4(1H,3H)-dione], the EC50 came out at 15.7 nM.

In turn, `O=c1[nH]cc(-c2cc([C@H]3C[C@@H]3c3ccc(OC(F)(F)F)cn3)c3nccn3n2)c(=O)[nH]1` (racemic) [Example 372, 5-(8-((1S,2S)-2-(5-(trifluoromethoxy)pyridin-2-yl)cyclopropyl)imidazo[1,2-b]pyridazin-6-yl)pyrimidine-2,4(1H,3H)-dione] returned an EC50 of 9.23 nM.

The compound `O=c1[nH]cc(-c2cc([C@H]3C[C@@H]3c3ccc(OC(F)(F)F)cn3)c3ncc(F)n3n2)c(=O)[nH]1` (racemic) [Example 374, 5-(3-fluoro-8-((2S,2S)-2-(5-(trifluoromethoxy)pyridin-2-yl)cyclopropyl)imidazo[1,2-b]pyridazin-6-yl)pyrimidine-2,4(1H,3H)-dione] returned an EC50 of 13.8 nM.

Turning to `O=c1[nH]cc(-c2cc([C@H]3C[C@@H]3c3ccc(OC(F)(F)F)nc3)c3nccn3n2)c(=O)[nH]1` (racemic) [Example 376, 5-(8-((2S,2S)-2-(6-(trifluoromethoxy)pyridin-3-yl)cyclopropyl)imidazo[1,2-b]pyridazin-6-yl)pyrimidine-2,4(1H,3H)-dione], a half-maximal effect (EC50) was put at 19.3 nM.

On to `O=c1[nH]cc(-c2cc([C@H]3C[C@@H]3c3ncc(C(F)(F)F)cn3)c3nccn3n2)c(=O)[nH]1` (racemic) [Example 377, 5-(8-((1S,2S)-2-(5-(trifluoromethyl)pyrimidin-2-yl)cyclopropyl)imidazo[1,2-b]pyridazin-6-yl)pyrimidine-2,4(1H,3H)-dione], for which the EC50 was 22.6 nM.

The compound `O=c1[nH]cc(-c2cc([C@H]3C[C@@H]3c3ncc(C(F)(F)F)cn3)c3ncc(F)n3n2)c(=O)[nH]1` (racemic) [Example 378, 5-(3-fluoro-8-((1S,2S)-2-(5-(trifluoromethyl)pyrimidin-2-yl)cyclopropyl)imidazo[1,2-b]pyridazin-6-yl)pyrimidine-2,4(1H,3H)-dione] gave an EC50 of 18.9 nM.

In turn, `N#Cc1ccc([C@H]2C[C@@H]2c2cc(-c3c[nH]c(=O)[nH]c3=O)nn3ccnc23)c(F)c1` (racemic) [Example 407, 4-((2S,2S)-2-(6-(2,4-dioxo-1,2,3,4-tetrahydropyrimidin-5-yl)imidazo[1,2-b]pyridazin-8-yl)cyclopropyl)-3-fluorobenzonitrile] had an EC50 of 14.7 nM. This EC50 and that of the compound before are within 1.5-fold of each other.

With `N#Cc1cccc([C@H]2C[C@@H]2c2cc(-c3c[nH]c(=O)[nH]c3=O)nn3ccnc23)c1F` (racemic) [Example 408, 3-((1S,2S)-2-(6-(2,4-dioxo-1,2,3,4-tetrahydropyrimidin-5-yl)imidazo[1,2-b]pyridazin-8-yl)cyclopropyl)-2-fluorobenzonitrile], a half-maximal response (EC50) required 7.44 nM. This EC50 is about 2-fold lower than that of the compound before.

For the compound `N#Cc1ccc([C@H]2C[C@@H]2c2cc(-c3c[nH]c(=O)[nH]c3=O)nn3ccnc23)cc1C(F)(F)F` (racemic) [Example 411, 4-((1S,2S)-2-(6-(2,4-dioxo-1,2,3,4-tetrahydropyrimidin-5-yl)imidazo[1,2-b]pyridazin-8-yl)cyclopropyl)-2-(trifluoromethyl)benzonitrile], the midpoint of the response, the EC50, lay at 42.6 nM.

`N#Cc1cc([C@H]2C[C@@H]2c2cc(-c3c[nH]c(=O)[nH]c3=O)nn3ccnc23)ccc1C(F)(F)F` (racemic) [Example 412, 5-((2S,2S)-2-(6-(2,4-dioxo-1,2,3,4-tetrahydropyrimidin-5-yl)imidazo[1,2-b]pyridazin-8-yl)cyclopropyl)-2-(trifluoromethyl)benzonitrile] gave an EC50 of 38.3 nM.
